In paper PMC10945739, “Exploring Cassia mimosoïdes as a promising natural source of steroids with potent anti-cancer, urease inhibition, and antimicrobial properties” (RSC Advances, 2024):
Read-outs that look alike come from different tables or passages of the source.

Assays:
H.pylori = test: Antibacterial activity, agar well diffusion method; assay type: cell-based, Helicobacter pylori; settings: Table S2 and b89; unit not given
Description: (§1) Antibacterial activity of the isolated and synthesized compounds was perform using agar well method. Three bacterial strains selected for this experiment were H.pylori, B. subtilis and S. aureus, for all of three strains compounds show good to mederate inhibition. […] The presence of H. pylori in the stomach has been associated with a range of gastric disorders, including peptic ulcers, gastritis, and an increased risk of gastric cancer. The bacterium's ability to manipulate the gastric environment through urease activity underscores its role in the development and progression of these conditions. Different studies have targeted H. pylori and its urease activity as potential avenues for therapeutic intervention and disease management (Fig. 4).
(§2) The agar well diffusion method evaluated every compound separately. Each sterile Petri plate was aseptically filled with 20 mL of the agar medium, which was then […]. The media then solidified at room temperature. Various bacterial strains were put to agar plates using a sterile cotton swab. A 6 mm-diameter well was drilled using a sterilized cork borer. Each isolated compound was dissolved in 1 mL of a 20% DMSO solution. In a well with a diameter of 6 mm, […] of the standard drug and isolated compounds were added. […] The zone of inhibition was graphed and quantified in millimeters.[20]

B. subtilis = test: Antibacterial activity, agar well diffusion method; assay type: cell-based; settings: Table S2; unit not given
Description: as §1, §2

S. aureus = test: Antibacterial activity, agar well diffusion method; assay type: cell-based, Staphylococcus aureus; settings: Table S2 and b89; unit not given
Jack bean urease = Jack bean urease (Canavalia ensiformis, UniProt P07374); test: biochemical; assay type: biochemical
Procedure: The inhibition potential of the isolated compounds against urease was investigated using a SpectraMax M2 reader using 96-well microplates.
The kinetic assay involved preparing varying concentrations of both the test compound and the substrate (urea), spanning 0 μM, 5 μM, 10 μM, 15 μM, and 20 μM. The resulting data was utilized to construct a Lineweaver–Burk plot.
In 96-well plates were incubated at 37 °C for 15 min, reaction mixtures consisting of 25 μL of test compounds (each 0.5 mM), 25 μL of enzyme solution (Jack bean urease) and 55 μL of buffers containing 20.79 mM urea. The indophenol method described by Weatherburn[21] was used to determine urease inhibitor activity by measuring ammonia production. Briefly, to each well were added 70 μL of alkaline reagent (0.5% w/v NaOH and 0.1% active chloride, NaOCl) and 45 μL of phenolic reagent (1% w/v phenol and 0.005% w/v sodium nitroprusside). The microplate reader (Molecular Devices, USA) was used to measure the increase in absorbance at 650 nm after 50 min. A final volume of 245 μL was required to perform all reactions in a triplicate. The results (absorbance change per minute) were processed using SoftMax Pro software (Molecular Devices, USA). All assays were performed at pH 6.8. Inhibition percentages were calculated from the formula% Inhibition = 100 − (Abs(sample)/Abs(control)) × 100where “A” is the absorbance of the “test well” as well as the “control”. Thiourea was used as a standard.

[1] = test system: human HepG2 hepatic cancer cells; test: MTT cell viability assay; assay type: cell-based; settings: HepG2, MTT, 48 hours, at 200 μg
Procedure: The human liver cells were cultivated in Dulbecco's modified Eagle medium (DMEM) in which 100 U mL^−1 penicillin, 10% fetal bovine and […] streptomycin were added and kept at 37 °C in a […] carbon dioxide induced humidified environment. The human liver cells prepared as per above procedure were then treated with synthesized compounds diluted to 0.05% DMSO concentration.
Using MTT assay, the % viability of cancer cells 36 was evaluated. According to the standard procedure, HepG2 cells were treated with various dosages of synthesized compounds for 48 hours each. The cells were then incubated for 4 hours at 37 °C with 10μ MTT reagent (5 mg mL^−1). Next, in 150 μL DMSO was added to dissolve formazan crystals. The λmax was recorded at 409 nm in a microplate reader (thermos scientific).

Jack bean urease, sequence (P07374 whole entry, looked up): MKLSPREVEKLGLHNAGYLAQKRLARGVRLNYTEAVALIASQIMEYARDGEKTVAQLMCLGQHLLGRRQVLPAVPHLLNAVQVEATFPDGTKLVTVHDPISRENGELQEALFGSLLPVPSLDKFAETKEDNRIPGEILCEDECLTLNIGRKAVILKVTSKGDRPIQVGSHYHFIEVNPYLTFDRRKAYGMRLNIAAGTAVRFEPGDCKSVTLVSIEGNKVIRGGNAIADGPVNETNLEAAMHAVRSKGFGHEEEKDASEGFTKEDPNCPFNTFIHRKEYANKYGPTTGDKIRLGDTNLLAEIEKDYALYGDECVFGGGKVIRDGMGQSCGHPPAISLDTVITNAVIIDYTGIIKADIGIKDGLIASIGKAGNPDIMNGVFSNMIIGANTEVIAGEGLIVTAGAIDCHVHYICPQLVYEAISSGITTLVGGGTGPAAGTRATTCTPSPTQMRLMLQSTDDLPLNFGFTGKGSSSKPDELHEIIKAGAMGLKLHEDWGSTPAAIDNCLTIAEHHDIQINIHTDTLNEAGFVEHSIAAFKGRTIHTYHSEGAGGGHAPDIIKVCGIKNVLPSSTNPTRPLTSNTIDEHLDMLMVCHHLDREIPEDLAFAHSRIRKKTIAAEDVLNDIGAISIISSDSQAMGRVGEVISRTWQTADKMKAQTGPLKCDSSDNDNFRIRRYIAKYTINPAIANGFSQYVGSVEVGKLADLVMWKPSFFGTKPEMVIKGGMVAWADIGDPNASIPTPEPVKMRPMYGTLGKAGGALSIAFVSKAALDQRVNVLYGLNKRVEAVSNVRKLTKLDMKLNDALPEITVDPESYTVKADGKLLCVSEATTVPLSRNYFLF

In the case of O=c1cc(-c2ccc(O)c(O)c2)oc2cc(O)c([C@@H]3O[C@H](CO)[C@@H](O)[C@H](O)[C@H]3O)c(O)c12 [Compound 7, Luteolin-6-C-β-D-glucopyranoside], the “Antibacterial activity (MIC) against H.Pylori” value (H.pylori) is reported as 1.23, the “Antibacterial activity against B. subtilis” value (B. subtilis) is reported as 0.12 and the “Antibacterial activity (MIC) against S. aureus” value (S. aureus) is reported as 0.78. For the same molecule, the IC50 (Jack bean urease; pH 6.8, read-out: IC50 ± SEM, urease) was 1220 ± 430 nM, the “% Inhibition of urease” value (Jack bean urease; test compounds each 0.5 mM, pH 6.8) was 81.57% and the IC50 (Jack bean urease; unit inferred, read-out: IC50, urease (printed in Fig. 6)) was 1220 ± 430 nM. The “% Viability” value [1] was 97.94 ± 3.53%.
